Activity calls are given as the source filed them. Unless noted, no cut-off for these calls is given here.
Assays:
Toxoplasma gondii [1] = experiment: Antiparasitic activity against Toxoplasma gondii infected in human foreskin fibroblasts assessed as tachyzoite growth inhibition after 5 days by colorimetric assay; assay type: functional, organism-based; conditions: 120 h
[2] = Cytotoxicity against human foreskin fibroblasts after 5 days by colorimetric assay; assay type: cell-based; conditions: human foreskin fibroblasts (HFF cells), read-out: TD50
Toxoplasma gondii [3] = experiment: Antiparasitic activity against Toxoplasma gondii infected in human foreskin fibroblasts assessed as inhibition of replication measured as decrease in the number of tachyzoites in vacuole at 10 uM after 24 hrs by fluorescence assay; assay type: functional, organism-based
[4] = Therapeutic index, ratio of TD50 for human foreskin fibroblasts to IC50 for Toxoplasma gondii infected in human foreskin fibroblasts; conditions: read-out: TI
Toxoplasma gondii [5] = experiment: Antiparasitic activity against Toxoplasma gondii infected in human foreskin fibroblasts assessed as inhibition of tachyzoite replication compound pretreated at 10 uM for 24 hrs before infection by fluorescence assay; assay type: functional, organism-based
Toxoplasma gondii [6] = experiment: Antiparasitic activity against Toxoplasma gondii infected in human foreskin fibroblasts assessed as inhibition of invasion compound pretreated at 10 uM for 20 mins before infection after 1 hr by fluorescence assay; assay type: functional, organism-based
Toxoplasma gondii [7] = experiment: Antiparasitic activity against Toxoplasma gondii infected in human foreskin fibroblasts assessed as inhibition of attachment compound pretreated at 10 uM for 20 mins before infection after 1 hr by fluorescence assay; assay type: functional, organism-based
Toxoplasma gondii [8] = experiment: Antiparasitic activity against Toxoplasma gondii infected in human foreskin fibroblasts assessed as inhibition of replication measured as recovery at 10 uM for 24 hrs followed by washout measured after 96 hrs by fluorescence assay; assay type: functional, organism-based

Row | SMILES | IC50 (Toxoplasma gondii [1]) | IC90 (Toxoplasma gondii [1]) | CC50 at 120 h [2] | inhibition (Toxoplasma gondii [3]) | selectivity ratio [4] | inhibition (Toxoplasma gondii [5]) | inhibition (Toxoplasma gondii [6]) | inhibition (Toxoplasma gondii [7]) | inhibition (Toxoplasma gondii [8])
1 | CC(C)=N/N=C1\NC(=O)CS1 | 210 µM | 852 µM | ≥ 320 µM | Active | 3 | inactive |  |  | 
2 | O=C1CS/C(=N/N=C\c2cccc3ccccc23)N1 | 3.9 µM | 31 µM | ≥ 320 µM | Active | 144 |  | Active | Active | inactive
3 | C/C(=N/N=C1/SCC(=O)N1Cc1ccccc1)c1cccs1 | 37 µM | 84 µM | ≥ 320 µM | Active | 15 |  | Active | Active | 
